Laboratory results as given in the NIST ThermoML archive (doi:10.1016/j.jct.2015.08.023).
“And” between values parts separate entries of the source, which are not always exact repeats. Equal values may be shown once.

Settings: Liquid, Closed cell (Static) method

CNCCCN [N-methyl-1,3-diaminopropane]
Settings | vapor or sublimation pressure
273 K | 0.089 kPa
273.15 K | 0.089 kPa
283.15 K | 0.204 kPa
283.37 K | 0.205 kPa
293.15 K | 0.4319 kPa
293.47 K | 0.431 kPa
303.11 K | 0.861 kPa
303.15 K | 0.8539 kPa
313.15 K | 1.591 kPa
313.18 K | 1.607 kPa
323.15 K | 2.814 kPa
323.26 K | 2.83 kPa and 2.828 kPa
333.15 K | 4.755 kPa
333.23 K | 4.764 kPa
333.25 K | 4.764 kPa
343.15 K | 7.716 kPa
343.26 K | 7.745 kPa
343.28 K | 7.742 kPa
343.3 K | 7.74 kPa
352.54 K | 11.85 kPa
353.15 K | 12.08 kPa
353.24 K | 12.14 kPa
362.82 K | 18.1 kPa
362.84 K | 18.11 kPa
363.15 K | 18.31 kPa
372.74 K | 26.61 kPa
372.76 K | 26.61 kPa
382.84 K | 38.34 kPa
382.87 K | 38.35 kPa
392.92 K | 53.96 kPa
392.95 K | 53.96 kPa
402.59 K | 73.4 kPa
402.61 K | 73.41 kPa
422.46 K | 129.8 kPa and 129.79 kPa
422.51 K | 129.84 kPa
432.4 K | 169.97 kPa and 170.02 kPa

CCN(CC)CCCN [N,N-diethylpropane-1,3-diamine]
Settings | vapor or sublimation pressure
263.16 K | 0.014 kPa
273.05 K | 0.034 kPa
273.15 K | 0.0338 kPa
283.15 K | 0.0768 kPa
283.27 K | 0.077 kPa
293.15 K | 0.1631 kPa
293.22 K | 0.163 kPa
303.14 K | 0.326 kPa
303.15 K | 0.3257 kPa
303.16 K | 0.325 kPa
313.15 K | 0.6164 kPa
313.16 K | 0.616 kPa
313.18 K | 0.616 kPa
323.15 K | 1.112 kPa
323.16 K | 1.114 kPa and 1.112 kPa
333.15 K | 1.922 kPa
333.18 K | 1.94 kPa
343.15 K | 3.199 kPa
343.21 K | 3.234 kPa
353.15 K | 5.143 kPa
353.19 K | 5.161 kPa and 5.162 kPa
363.15 K | 8.017 kPa
363.25 K | 7.965 kPa

CN(C)CCCN [N,N-dimethyl-1,3-propanediamine]
Settings | vapor or sublimation pressure
273.04 K | 0.183 kPa
283.06 K | 0.381 kPa
283.15 K | 0.3844 kPa
293.13 K | 0.749 kPa
293.15 K | 0.7536 kPa
303.15 K | 1.397 kPa
303.16 K | 1.396 kPa
313.15 K | 2.464 kPa
313.21 K | 2.478 kPa
323.15 K | 4.162 kPa
323.27 K | 4.186 kPa
333.15 K | 6.763 kPa
333.32 K | 6.828 kPa
343.15 K | 10.61 kPa
343.37 K | 10.73 kPa and 10.72 kPa
353.15 K | 16.15 kPa
353.41 K | 16.31 kPa
363.15 K | 23.9 kPa
363.44 K | 24.1 kPa
